From publication PMC11173677, “Identification and Evaluation of Olive Phenolics in the Context of Amine Oxidase Enzyme Inhibition and Depression: In Silico Modelling and In Vitro Validation” (Molecules, 2024)

What was measured:
Type in all cases: cell-based, human
MAO-A [1] = test system: T1, MAO-A; test: MAO-A activity assay in corticosteroid-stimulated BJ cells; conditions: then 50 μM compound 24 h
T1 construct: endogenous in cells; host or cells: BJ human foreskin fibroblasts stimulated with DEX or HC
Procedure: (§1) The BJ cells were subsequently incubated with 10 μM HC or 100 μM DEX to stimulate MAO expression. […] The untreated BJ cells received normal growth medium. The cells were collected, homogenised, and analysed through Western blotting where the expression of MAO-A/B was determined through immunodetection of protein subtypes.
(§2) Activity assays were commercially sourced from BioVision (Abcam, BioVision ab241031, Waltham, MA, USA) and were performed according to manufacturer’s instructions. The treatment groups were plated in duplicate on a black, flat 96-well microplate. The cells were homogenised in assay buffer using a microtube mixer at 4 °C and centrifuged at 10,000× g for 10 min. A Bradford assay was performed to determine the total protein concentration within each cell pellet (200 μg/well for BJ cells, 40 μg/well for hESC-derived neurons). Approximately 40 μL of supernatant was loaded into wells along with 10 μL of either […], or assay buffer for total MAO activity. A H2O2 standard was pipetted as supplied and 50 μL of reaction mix was pipetted into all wells. Using a CLARIOstar Plus Microplate Reader, (BMG Labtech, Ortenberg, Germany), fluorescence was measured kinetically at 25 °C for 60 min with Ex/Em = 535/587 nm.

total MAO = test: Total MAO activity assay in corticosteroid-stimulated BJ cells; conditions: then 50 μM compound 24 h
Procedure: as §1, §2

MAO-A [2] = test system: T1, MAO-A; test: MAO-A activity assay in hESC-derived neurons stimulated with ATRA; conditions: 1 μM ATRA 24 h, then TCP 5 μM, OLC 50 μM or OLP 50 μM for 24 h
Procedure: An in vitro model of MDD was designed for stem cell-derived neuronal cells through incubation of 1 μM all-trans retinoic acid (Sigma-Aldrich PHR1187, St. Louis, MO, USA). All cell treatments were conducted in duplicate and replicated using independently differentiating neuronal plates.
as §2

MAO-B = test system: T2, MAO-B; test: MAO-B activity assay in corticosteroid-stimulated BJ cells; conditions: then 50 μM compound 24 h
T2 construct: endogenous in cells; host or cells: BJ human foreskin fibroblasts stimulated with DEX or HC
Procedure: as §1, §2

COC(=O)[C@H](O)CC(=O)OCCc1ccc(O)c(O)c1 [OLP, oleohydroxypyretol]
MAO-A activity in BJ cells (MAO-A [1]; 10 μM HC 5 days): downregulate
MAO-A activity in BJ cells (MAO-A [1]; 100 μM DEX 7 days): downregulate
total MAO activity in BJ cells (total MAO; 10 μM HC 5 days): downregulate
total MAO activity in BJ cells (total MAO; 100 μM DEX 7 days): downregulate
MAO-A activity in hESC-derived neurons (MAO-A [2]): significantly reduced
MAO-B activity in BJ cells (MAO-B; 10 μM HC 5 days): downregulate
MAO-B activity in BJ cells (MAO-B; 100 μM DEX 7 days): downregulate
